The source of these data is US9198915B2, “Methods involving aldose reductase inhibitors” (The Board of Regents of The University of Texas System, priority 2007, dated 2015).

Common to all, as to assay type: cell-based, human
In one assay the test system is NF-κB and AP-1. The experiment in a line: RW-induced NF-κB and AP-1 activation in SAEC (EMSA). As for the experimental part: The SAEC were pretreated with or without AR inhibitors for 24 h in starving medium, followed by treatment with Ragweed pollens (RW) (50 μg/ml) for 2 h at 37° C. The nuclear extracts were prepared as described. Briefly, SAEC were harvested and washed with cold PBS and suspended in 0.1 ml of hypotonic lysis buffer containing protease inhibitors for 10 min. The cells were then lysed with 5 μl of 10% Nonidet P-40. The homogenate was centrifuged (6000 rpm; 1 min.), and supernatant containing the cytoplasmic extracts was stored frozen at −80° C. The nuclear pellet was resuspended in 50 μl ice-cold nuclear extraction buffer. After 30 min of intermittent mixing, the extract was centrifuged (12000 rpm; 15 min.), and supernatants containing nuclear extracts were secured. The protein content was measured by the Bradford method. If they were not used immediately, they were stored at −80° C. The Consensus oligonucleotides for NF-κB and AP-1 transcription factors were 5′-end labeled using T4 polynucleotide kinase. EMSA was performed as described. The specificity of the assay was examined by competition with an excess of unlabeled oligonucleotide and supershift assays with antibodies to p65.
In general terms: In EMSA bound probe runs differently from free probe, usually more slowly.

In assay [1] the test system is IL-6, IL-8 and Cox-2 mRNA. Briefly: RW-induced IL-6, IL-8 and Cox-2 mRNA in SAEC (RT-PCR). The following applies: RW 50 μg/ml, 6 h. As for the experimental part:
The SAECs were grown in 6-well plates at a density of approximately 3.0×10^5 cells/well. After approximately 80% confluence, cells were serum-starved in the presence or absence of sorbinil or zopolrestat (20 μM) for 24 h and then stimulated with 50 μg/ml RW for 6 h. Total RNA from SAECs was isolated by using RNeasy kit (Qiagen) as per supplier's instructions. Aliquots of RNA (0.5-1.0 μg) isolated from each sample were reverse transcribed with Omniscript and Sensiscript reverse transcriptase one-step RT-PCR system with HotStar Taq DNApolymerase (Qiagen) at 55° C. for 30 min followed by PCR amplification. The oligonucleotide primer sequences were as follows: 5′-ATGAACTCCT TCTCCACAAGCGC-3′ (SEQ ID NO:3) (sense) and 5′-[…]-3′ (SEQ TD NO:4) (antisense) for IL-6; 5′-[…]-3′ (SEQ ID NO:5) (sense) and 5′-TCT […]-3′ (SEQ ID NO:6) (antisense) for IL-8; 5 ‘-TGAAACCCACTCCA AACACAG-3’ (SEQ ID NO:7) (sense) and 5′-[…]-3′ (SEQ ID NO:8) (antisense) for Cox-2; and 5′-[…]-3′ (SEQ ID NO:9) (sense) and 5′-CGTC […]-3′ (SEQ ID NO:10) (antisense) for β-actin. PCR was carried out in a PCR Sprint thermal cycler (Thermo electron corporation, Milford, Mass.) under the following conditions: initial denaturation at 95° C. for 15 min followed by 35 cycles of 94° C. 1 min, 62° C. 1 min, 72° C. 1 min, and then 72° C. 10 min for final extension. […]

For assay [2], the system named is COX-2, iNOS, Bcl-XL, Bax, cyclin D1, E2F2. Briefly: RW-induced inflammatory, apoptosis and cell cycle proteins in SAEC (Western blot). The following applies: RW 50 μg/ml, 24 h. The source says:
Fourty micrograms of cytoplasmic protein extracts, prepared as described earlier were resolved on 10% SDS-PAGE. After electrophoresis, the proteins were electro transferred to a nitrocellulose membrane, blocked with 5% nonfat milk in TBST, and probed with antibodies against COX-2, NOS2, Bcl-xL, Bax, cyclin D1, E2F2 (1:1,000 dilution) for 2 hr. The blot was then washed, exposed to HRP-conjugated secondary antibodies (1:5,000 dilution) for 1 hr, and the antigen-antibody complex was detected by enhanced chemiluminescence (Amersham Pharmacia Biotech, Piscataway, N.J., USA).
For orientation: Immunoblotting shows a protein as a band on a membrane.

The test system of assay [3] is Cox-2, iNOS, Bax, Bcl-xl, cyclin D1, E2F2. The experiment in a line: TNF-α- and LPS-induced inflammatory, apoptosis and cell cycle proteins in SAEC (Western blotting). The following applies: TNF-α 2 nM or LPS 1 μg/ml, 24 h. As for the experimental part:
The cells after incubations were lysed in RIPA lysis buffer, and forty micrograms of cytoplasmic proteins were resolved on 10% SDS-PAGE gel. After electrophoresis, the proteins were electro-transferred to a nitrocellulose membrane, blocked with 5% nonfat milk in TBST, and probed with antibodies against COX-2, NOS2, Bax, cyclin D1, E2F2 (1:1,000 dilution) for 2 hr. The blot was then washed, exposed to HRP-conjugated secondary antibodies (1:5,000 dilution) for 1 hr, and the antigen-antibody complex was detected by enhanced chemiluminescence (Amersham Pharmacia Biotech, Piscataway, N.J., USA).

Another assay relates to NF-κB. The experiment in a line: NF-κB-dependent SEAP reporter assay in TNF-α- or LPS-treated SAEC. As for the experimental part: SAEC cells (1×10^5 cells/well) were plated in 24-well plates, serum starved in basal medium with AR inhibitor, sorbinil and zopolrestate (20 μM) or carrier for 24 h, and transiently transfected with pNF-κB-secretory alkaline phosphatase (SEAP) construct or control plasmid pTALSEAP DNA (Clontech, Palo Alto, Calif.) using the LipofectAMINE Plus reagent. After 6 hours of transfection medium was replaced with fresh medium and cells were incubated with either TNF-α (2 nM) or LPS (1 μg/mL) or carrier for 48 h. The cell culture medium was then harvested and analyzed for SEAP activity, essentially as described by the manufacturer (Clontech, Palo Alto, Calif.), using a 96-well chemiluminescence plate reader.

Where only a bound is given, the exact number is not on record here.

Take `O=C(O)Cc1nn(Cc2nc3cc(C(F)(F)F)ccc3s2)c(=O)c2ccccc12` [zopolrestat]: in the assay on NF-κB and AP-1 (RW 50 μg/ml), the “prevention of RW-induced NF-κB activation and nuclear translocation” value is listed as over 80%. Besides, the “basal NF-κB activity, compound alone” value with NF-κB and AP-1 (no RW) was “did not affect”. Also, in assay [1], the “prevention of RW-induced increase of COX-2 mRNA levels” value was over 60%; the “prevention of RW-induced increase of IL-6 and IL-8 mRNA levels” value is reported as over 70%. In assay [2], the “RW-induced increase of COX-2 and iNOS protein expression” value was “significantly prevented the increase”; the “prevention of RW-induced increase in expression of cyclin D1 and E2F2” value is over 90%. For the same compound, in assay [3], the “TNF-α- and LPS-induced increase of Cox-2 and iNOS protein expression” value is “significantly prevented this increase”. Moreover, the inhibition (usually the share of the control response that was lost under treatment) at 20 µM in the assay on NF-κB (Homo sapiens, SAEC, AR inhibitor 20 μM, TNF-α 2 nM or LPS 1 μg/mL, 48 h, read-out: inhibition of TNF-α- and LPS-induced NF-κB-dependent SEAP activation) is over 60%. For the same compound, the “basal NF-κB-SEAP activity, compound alone” value in the assay on NF-κB (no TNF-α or LPS) is “did not affect”.
